# Legend:
# Assay in all cases: Eurofins kinase panel
# Type in all cases: biochemical
# [1] = target: T1, ASK1(h) (Homo sapiens, UniProt Q99683); details: read-out: Inhibition rate (%)
# T1 construct: purchased Eurofins (KinaseProfiler)
# T1 sequence (Q99683 1-1374): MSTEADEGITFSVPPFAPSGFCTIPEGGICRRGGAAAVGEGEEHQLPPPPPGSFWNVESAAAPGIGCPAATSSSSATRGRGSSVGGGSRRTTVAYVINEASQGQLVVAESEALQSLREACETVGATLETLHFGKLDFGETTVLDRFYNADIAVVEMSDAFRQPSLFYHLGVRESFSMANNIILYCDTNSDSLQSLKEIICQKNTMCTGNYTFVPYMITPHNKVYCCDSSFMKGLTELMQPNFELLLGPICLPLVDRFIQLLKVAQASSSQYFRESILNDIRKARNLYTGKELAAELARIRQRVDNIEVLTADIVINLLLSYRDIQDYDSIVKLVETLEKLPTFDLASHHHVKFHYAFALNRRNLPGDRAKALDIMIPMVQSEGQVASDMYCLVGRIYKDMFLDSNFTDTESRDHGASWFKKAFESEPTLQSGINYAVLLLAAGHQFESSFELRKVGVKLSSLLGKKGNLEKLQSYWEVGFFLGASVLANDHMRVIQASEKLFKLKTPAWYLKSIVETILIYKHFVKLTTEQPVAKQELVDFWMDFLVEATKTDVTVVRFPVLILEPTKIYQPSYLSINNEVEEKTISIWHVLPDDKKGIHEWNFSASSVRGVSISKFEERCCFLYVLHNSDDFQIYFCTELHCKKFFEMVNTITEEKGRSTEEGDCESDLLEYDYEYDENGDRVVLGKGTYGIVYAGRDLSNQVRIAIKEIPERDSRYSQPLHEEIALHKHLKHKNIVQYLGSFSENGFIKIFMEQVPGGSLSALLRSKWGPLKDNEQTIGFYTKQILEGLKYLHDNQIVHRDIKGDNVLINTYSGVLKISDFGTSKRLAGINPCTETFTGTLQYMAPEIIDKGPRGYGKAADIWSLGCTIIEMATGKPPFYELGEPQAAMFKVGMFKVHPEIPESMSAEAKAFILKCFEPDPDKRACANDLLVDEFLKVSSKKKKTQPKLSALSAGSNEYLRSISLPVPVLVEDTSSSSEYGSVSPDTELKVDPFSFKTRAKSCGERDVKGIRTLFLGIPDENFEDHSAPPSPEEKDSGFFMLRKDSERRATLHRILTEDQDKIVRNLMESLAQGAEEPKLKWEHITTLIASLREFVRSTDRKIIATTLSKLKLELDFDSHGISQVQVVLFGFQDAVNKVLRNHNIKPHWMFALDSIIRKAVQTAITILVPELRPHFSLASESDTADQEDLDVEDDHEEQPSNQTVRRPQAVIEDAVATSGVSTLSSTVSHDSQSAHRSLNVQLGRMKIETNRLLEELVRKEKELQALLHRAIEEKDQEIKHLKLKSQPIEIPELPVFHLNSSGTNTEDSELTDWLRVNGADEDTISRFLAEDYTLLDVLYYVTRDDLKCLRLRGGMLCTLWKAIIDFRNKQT
# [2] = target: T2, LOK(h) (Homo sapiens, UniProt O94804); details: read-out: Inhibition rate (%)
# T2 construct: purchased Eurofins (KinaseProfiler)
# [3] = target: T3, Met(Y1248D)(h) (Homo sapiens, UniProt P08581, Y1230D); details: read-out: Inhibition rate (%)
# T3 construct: purchased Eurofins (KinaseProfiler)
# T3 sequence (P08581 956-1390 Y1230D limits assumed): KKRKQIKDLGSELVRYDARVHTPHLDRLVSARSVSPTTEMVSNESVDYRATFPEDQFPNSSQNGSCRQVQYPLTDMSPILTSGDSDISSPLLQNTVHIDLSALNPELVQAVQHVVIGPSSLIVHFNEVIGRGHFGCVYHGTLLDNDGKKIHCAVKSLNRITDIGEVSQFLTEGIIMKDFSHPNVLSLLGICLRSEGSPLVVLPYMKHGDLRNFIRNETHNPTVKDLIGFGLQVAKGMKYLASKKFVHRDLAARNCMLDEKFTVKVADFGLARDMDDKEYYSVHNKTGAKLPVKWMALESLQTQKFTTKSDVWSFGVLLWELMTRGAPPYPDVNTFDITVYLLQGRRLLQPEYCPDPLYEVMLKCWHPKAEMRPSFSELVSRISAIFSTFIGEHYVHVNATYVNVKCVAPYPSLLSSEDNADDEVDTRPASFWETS
# [4] = target: T4, MAPKAP-K3(h) (Homo sapiens, UniProt Q16644); details: read-out: Inhibition rate (%)
# T4 construct: purchased Eurofins (KinaseProfiler)
# [5] = target: T5, MLK2(h) (Homo sapiens, UniProt Q02779); details: read-out: Inhibition rate (%)
# T5 construct: purchased Eurofins (KinaseProfiler)
# T5 sequence (Q02779 whole entry): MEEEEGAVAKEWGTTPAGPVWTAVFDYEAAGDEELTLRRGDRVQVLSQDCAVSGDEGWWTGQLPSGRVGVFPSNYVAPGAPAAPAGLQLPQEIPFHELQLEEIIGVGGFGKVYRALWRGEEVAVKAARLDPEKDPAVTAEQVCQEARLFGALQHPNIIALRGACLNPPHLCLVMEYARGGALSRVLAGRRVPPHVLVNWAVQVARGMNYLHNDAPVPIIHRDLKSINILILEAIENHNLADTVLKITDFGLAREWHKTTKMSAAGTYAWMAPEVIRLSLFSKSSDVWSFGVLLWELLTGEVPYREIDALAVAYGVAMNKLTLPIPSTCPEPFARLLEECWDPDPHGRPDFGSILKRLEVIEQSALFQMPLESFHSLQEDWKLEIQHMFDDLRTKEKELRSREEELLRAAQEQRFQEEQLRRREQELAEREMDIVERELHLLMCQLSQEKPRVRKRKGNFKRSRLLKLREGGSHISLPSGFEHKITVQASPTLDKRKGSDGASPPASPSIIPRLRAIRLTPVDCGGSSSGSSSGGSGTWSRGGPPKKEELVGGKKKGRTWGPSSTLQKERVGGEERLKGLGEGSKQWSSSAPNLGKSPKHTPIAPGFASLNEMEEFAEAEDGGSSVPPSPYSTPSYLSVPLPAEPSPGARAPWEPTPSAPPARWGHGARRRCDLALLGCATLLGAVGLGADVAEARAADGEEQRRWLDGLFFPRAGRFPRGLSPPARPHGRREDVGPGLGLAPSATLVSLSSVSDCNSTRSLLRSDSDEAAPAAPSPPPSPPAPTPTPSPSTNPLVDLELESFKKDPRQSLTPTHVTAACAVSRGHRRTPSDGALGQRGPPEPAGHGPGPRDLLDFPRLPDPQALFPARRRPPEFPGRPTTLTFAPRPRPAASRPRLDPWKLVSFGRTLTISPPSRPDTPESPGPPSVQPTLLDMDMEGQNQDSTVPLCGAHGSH
# [6] = target: T6, TTBK1(h) (Homo sapiens, UniProt Q5TCY1); details: read-out: Inhibition rate (%)
# T6 construct: purchased Eurofins (KinaseProfiler)
# [7] = target: T7, CaMKIIδ(h) (Homo sapiens, UniProt Q13557); details: read-out: Inhibition rate (%)
# T7 construct: purchased Eurofins (KinaseProfiler)
# [8] = target: T8, CDK1/cyclinB(h) (Homo sapiens, UniProt P06493); details: read-out: Inhibition rate (%)
# T8 construct: purchased Eurofins (KinaseProfiler)
# T8 sequence (P06493 whole entry): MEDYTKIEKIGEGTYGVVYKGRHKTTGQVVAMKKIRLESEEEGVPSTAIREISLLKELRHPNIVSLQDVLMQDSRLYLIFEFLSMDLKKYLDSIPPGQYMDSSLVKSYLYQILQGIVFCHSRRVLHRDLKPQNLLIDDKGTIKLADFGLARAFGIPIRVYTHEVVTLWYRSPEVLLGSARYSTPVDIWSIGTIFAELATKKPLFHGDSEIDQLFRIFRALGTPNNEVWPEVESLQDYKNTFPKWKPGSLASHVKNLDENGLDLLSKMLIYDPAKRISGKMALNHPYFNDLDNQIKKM
# T8 sequence (P14635 whole entry partner): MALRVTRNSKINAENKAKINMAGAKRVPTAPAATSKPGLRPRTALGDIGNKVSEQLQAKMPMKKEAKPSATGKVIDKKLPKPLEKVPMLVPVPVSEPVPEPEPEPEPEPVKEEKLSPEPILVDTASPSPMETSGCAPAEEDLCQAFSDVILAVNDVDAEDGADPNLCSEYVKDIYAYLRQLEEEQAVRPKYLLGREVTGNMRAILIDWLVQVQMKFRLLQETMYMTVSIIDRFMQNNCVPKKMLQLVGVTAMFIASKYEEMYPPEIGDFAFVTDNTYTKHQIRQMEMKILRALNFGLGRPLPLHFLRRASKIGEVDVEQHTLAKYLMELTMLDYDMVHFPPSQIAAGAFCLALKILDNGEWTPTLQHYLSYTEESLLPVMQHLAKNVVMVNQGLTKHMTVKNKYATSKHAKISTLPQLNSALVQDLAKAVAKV
# [9] = target: T9, MRCKα(h) (Homo sapiens, UniProt Q5VT25); details: read-out: Inhibition rate (%)
# T9 construct: purchased Eurofins (KinaseProfiler)
# [10] = target: T10, Ros(h) (Homo sapiens, UniProt P08922); details: read-out: Inhibition rate (%)
# T10 construct: purchased Eurofins (KinaseProfiler)
# [11] = target: T11, MYLK2(h) (Homo sapiens, UniProt Q9H1R3); details: read-out: Inhibition rate (%)
# T11 construct: purchased Eurofins (KinaseProfiler)
# T11 sequence (Q9H1R3 whole entry): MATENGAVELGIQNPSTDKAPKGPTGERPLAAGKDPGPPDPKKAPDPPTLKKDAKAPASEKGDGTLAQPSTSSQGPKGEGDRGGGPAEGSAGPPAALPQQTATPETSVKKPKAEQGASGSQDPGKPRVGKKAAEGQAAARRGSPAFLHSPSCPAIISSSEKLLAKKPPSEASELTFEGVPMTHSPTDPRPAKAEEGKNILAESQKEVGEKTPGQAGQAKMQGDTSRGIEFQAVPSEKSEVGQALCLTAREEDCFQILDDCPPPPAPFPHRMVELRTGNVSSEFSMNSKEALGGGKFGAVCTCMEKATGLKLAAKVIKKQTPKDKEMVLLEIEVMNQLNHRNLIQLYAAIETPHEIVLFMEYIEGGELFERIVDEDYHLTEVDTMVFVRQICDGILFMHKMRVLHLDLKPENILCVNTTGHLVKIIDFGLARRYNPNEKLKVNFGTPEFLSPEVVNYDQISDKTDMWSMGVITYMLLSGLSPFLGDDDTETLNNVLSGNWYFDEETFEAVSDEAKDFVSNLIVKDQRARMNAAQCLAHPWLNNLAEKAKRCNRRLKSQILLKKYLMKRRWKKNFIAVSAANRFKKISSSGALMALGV
# [12] = target: T12, EphA7(h) (Homo sapiens, UniProt Q15375); details: read-out: Inhibition rate (%)
# T12 construct: purchased Eurofins (KinaseProfiler)
# T12 sequence (Q15375 28-998): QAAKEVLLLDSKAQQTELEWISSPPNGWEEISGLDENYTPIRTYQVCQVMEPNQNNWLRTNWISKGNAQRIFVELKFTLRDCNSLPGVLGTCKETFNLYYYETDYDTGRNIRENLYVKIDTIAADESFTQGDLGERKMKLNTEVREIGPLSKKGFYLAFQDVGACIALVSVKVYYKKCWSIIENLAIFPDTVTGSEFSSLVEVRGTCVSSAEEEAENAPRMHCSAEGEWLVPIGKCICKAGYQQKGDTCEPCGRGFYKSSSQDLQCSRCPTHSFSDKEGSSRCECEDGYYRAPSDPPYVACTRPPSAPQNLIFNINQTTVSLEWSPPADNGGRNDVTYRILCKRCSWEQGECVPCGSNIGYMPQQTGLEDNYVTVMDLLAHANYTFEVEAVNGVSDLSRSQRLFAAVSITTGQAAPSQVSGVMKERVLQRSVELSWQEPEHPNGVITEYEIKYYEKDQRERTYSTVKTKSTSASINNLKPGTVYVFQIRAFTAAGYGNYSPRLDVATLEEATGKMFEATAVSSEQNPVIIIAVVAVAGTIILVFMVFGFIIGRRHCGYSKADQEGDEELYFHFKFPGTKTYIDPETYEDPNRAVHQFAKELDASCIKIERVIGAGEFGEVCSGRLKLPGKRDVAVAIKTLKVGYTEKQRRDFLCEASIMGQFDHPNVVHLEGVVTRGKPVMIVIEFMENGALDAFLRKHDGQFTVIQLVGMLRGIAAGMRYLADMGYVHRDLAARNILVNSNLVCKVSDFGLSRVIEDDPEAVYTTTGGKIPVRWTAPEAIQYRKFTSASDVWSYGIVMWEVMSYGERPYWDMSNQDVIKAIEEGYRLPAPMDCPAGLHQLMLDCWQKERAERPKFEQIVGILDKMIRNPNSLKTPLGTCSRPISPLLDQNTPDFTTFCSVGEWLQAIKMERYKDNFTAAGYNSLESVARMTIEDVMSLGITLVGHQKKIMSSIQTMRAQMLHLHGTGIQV
# [13] = target: FGFR1(h) (Homo sapiens, UniProt P11362)
# [14] = target: T13, SIK3(h) (Homo sapiens, UniProt Q9Y2K2); details: read-out: Inhibition rate (%)
# T13 construct: purchased Eurofins (KinaseProfiler)
# T13 sequence (Q9Y2K2 whole entry): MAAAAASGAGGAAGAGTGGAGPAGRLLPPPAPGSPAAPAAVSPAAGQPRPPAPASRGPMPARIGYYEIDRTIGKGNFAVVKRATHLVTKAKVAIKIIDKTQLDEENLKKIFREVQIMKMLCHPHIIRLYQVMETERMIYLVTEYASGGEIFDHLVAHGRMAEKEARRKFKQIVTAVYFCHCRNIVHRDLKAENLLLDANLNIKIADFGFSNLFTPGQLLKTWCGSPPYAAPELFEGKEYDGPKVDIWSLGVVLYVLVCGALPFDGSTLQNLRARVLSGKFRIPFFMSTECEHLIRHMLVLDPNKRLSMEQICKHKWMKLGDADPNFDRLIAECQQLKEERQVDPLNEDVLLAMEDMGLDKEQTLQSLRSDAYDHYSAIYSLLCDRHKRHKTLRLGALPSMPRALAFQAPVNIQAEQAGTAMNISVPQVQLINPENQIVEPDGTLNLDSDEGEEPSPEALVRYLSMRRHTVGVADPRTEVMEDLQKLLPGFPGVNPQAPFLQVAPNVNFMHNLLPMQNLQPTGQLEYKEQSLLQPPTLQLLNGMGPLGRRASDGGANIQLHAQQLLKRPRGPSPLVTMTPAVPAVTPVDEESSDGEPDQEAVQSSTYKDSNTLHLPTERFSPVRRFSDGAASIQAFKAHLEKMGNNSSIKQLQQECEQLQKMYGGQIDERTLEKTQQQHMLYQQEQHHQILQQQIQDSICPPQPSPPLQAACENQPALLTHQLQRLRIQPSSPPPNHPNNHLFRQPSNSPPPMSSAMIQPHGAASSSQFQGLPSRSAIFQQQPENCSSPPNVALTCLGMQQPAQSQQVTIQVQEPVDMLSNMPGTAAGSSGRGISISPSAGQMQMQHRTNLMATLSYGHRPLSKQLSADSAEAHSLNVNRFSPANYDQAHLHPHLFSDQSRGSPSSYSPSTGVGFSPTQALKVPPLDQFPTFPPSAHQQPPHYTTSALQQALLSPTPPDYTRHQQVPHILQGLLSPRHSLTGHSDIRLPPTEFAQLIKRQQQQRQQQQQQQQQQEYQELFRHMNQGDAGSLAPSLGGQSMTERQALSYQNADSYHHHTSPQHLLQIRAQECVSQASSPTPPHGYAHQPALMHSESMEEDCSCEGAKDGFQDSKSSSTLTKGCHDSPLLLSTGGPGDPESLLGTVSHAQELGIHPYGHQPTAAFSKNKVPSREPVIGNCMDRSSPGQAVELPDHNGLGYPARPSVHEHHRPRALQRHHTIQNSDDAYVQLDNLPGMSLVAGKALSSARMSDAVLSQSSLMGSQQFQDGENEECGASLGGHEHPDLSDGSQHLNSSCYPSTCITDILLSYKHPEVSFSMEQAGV
# [15] = target: T14, TrkC(h) (Homo sapiens, UniProt Q16288); details: read-out: Inhibition rate (%)
# T14 construct: purchased Eurofins (KinaseProfiler)
smiles,measurement,setting,value
COc1cc(OC)c(Cl)c(-c2ccc3c(NC(=O)c4ccc(N5CCNC(C)(C)C5)cc4)n[nH]c3n2)c1Cl [3D185],inhibition at 0.01 µM,[1]; 10 nM,-6%
same,inhibition at 0.1 µM,[1]; 100 nM,-7%
same,inhibition at 1 µM,[1]; 1000 nM,-2%
same,inhibition at 0.01 µM,[2]; 10 nM,1%
same,inhibition at 0.1 µM,[2]; 100 nM,27%
same,inhibition at 1 µM,[2]; 1000 nM,77%
same,inhibition at 0.01 µM,[3]; 10 nM,-12%
same,inhibition at 0.1 µM,[3]; 100 nM,-1%
same,inhibition at 1 µM,[3]; 1000 nM,18%
same,inhibition at 0.01 µM,[4]; 10 nM,8%
same,inhibition at 0.1 µM,[4]; 100 nM,17%
same,inhibition at 1 µM,[4]; 1000 nM,19%
same,inhibition at 0.01 µM,[5]; 10 nM,4%
same,inhibition at 0.1 µM,[5]; 100 nM,2%
same,inhibition at 1 µM,[5]; 1000 nM,24%
same,inhibition at 0.01 µM,[6]; 10 nM,2%
same,inhibition at 0.1 µM,[6]; 100 nM,-7%
same,inhibition at 1 µM,[6]; 1000 nM,-6%
same,inhibition at 0.01 µM,[7]; 10 nM,-1%
same,inhibition at 0.1 µM,[7]; 100 nM,-3%
same,inhibition at 1 µM,[7]; 1000 nM,-3%
same,inhibition at 0.01 µM,[8]; 10 nM,0%
same,inhibition at 0.1 µM,[8]; 100 nM,2%
same,inhibition at 1 µM,[8]; 1000 nM,-11%
same,inhibition at 0.01 µM,[9]; 10 nM,12%
same,inhibition at 0.1 µM,[9]; 100 nM,16%
same,inhibition at 1 µM,[9]; 1000 nM,14%
same,inhibition at 0.01 µM,[10]; 10 nM,-4%
same,inhibition at 0.1 µM,[10]; 100 nM,6%
same,inhibition at 1 µM,[10]; 1000 nM,17%
same,inhibition at 0.01 µM,[11]; 10 nM,7%
same,inhibition at 0.1 µM,[11]; 100 nM,0%
same,inhibition at 1 µM,[11]; 1000 nM,21%
same,inhibition at 0.01 µM,[12]; 10 nM,0%
same,inhibition at 0.1 µM,[12]; 100 nM,8%
same,inhibition at 1 µM,[12]; 1000 nM,21%
same,IC50,[13]; estimated from 372-kinase panel,< 0.01 µM
same,inhibition at 0.01 µM,[13]; read-out: Inhibition rate (%),99%
same,inhibition at 0.1 µM,[13]; read-out: Inhibition rate (%),98%
same,inhibition at 1 µM,[13]; read-out: Inhibition rate (%),100%
same,inhibition at 0.01 µM,[14]; 10 nM,-4%
same,inhibition at 0.1 µM,[14]; 100 nM,-1%
same,inhibition at 1 µM,[14]; 1000 nM,-2%
same,inhibition at 0.01 µM,[15]; 10 nM,36%
same,inhibition at 0.1 µM,[15]; 100 nM,85%
same,inhibition at 1 µM,[15]; 1000 nM,98%
